# Laboratory results as given in patent publication US8653115B2, “Heterocyclic non-nucleoside compounds, their preparation, pharmaceutical composition and their use as antiviral agents” (Shanghai Institute of Materia Medica, Chinese Academy of …, priority 2006, dated 2014).
# Experiments:
# [1] = system: Duck hepatitis B virus (DHBV); experiment: Anti hepatitis B virus activity on animal: DHBV-DNA level in serum of infected ducks, dot blot hybridization; type: in vivo, Beijing duck; details: 50 mg/kg oral (intragastric) twice per day for 10 days; for inhibitory effect to DHBV-DNA in duck serum, group analysis (versus virus control group) / inhibitory effect to DHBV-DNA in duck serum, paired analysis (versus T0 of same group): T5, T10, P3
# Description: The solutions of the sample drugs having required concentration (100 mg/mL) were prepared by using 0.3% sodium carboxymethyl cellulose. Batch number: 00701010
# Strong positive serum of Duck hepatitis B virus DNA (DHBV-DNA), collected from Shanghai brown-duck, was store at −70[…].
# 1-day-old Beijing duck, purchased from Beijing QianJin breeding duck farm.
# 1-day-old Beijing duck was injected DHBV-DNA positive serum of Shanghai brown-duck via vena cruralis with 0.2 ml/each duck. Blood was taken on the seventh day after infected; serum was separated and stored at −70[…] to be detected.
# DHBV infected ducklings were randomly grouped (six ducklings/each group) to carry out drug treatment experiment after 7 days. The administration groups (W28D, W28F, W28M, C37) were set 1 dose group—50 mg/kg respectively, and oral (intragastric) administered twice per day for 10 days (Bid×10). The drugs were replaced with normal saline in virus control group (DHBV). […] Blood was taken from the vena cruralis of the duck after 7 days later of infection, i.e. before drug administration (T0), the fifth day (T5) and the tenth day after drug administration (T10), and the third day after drug withdrawal (P3), then serum was separated and stored at −70[…] to be detected.
# The above duck serum was taken and dotted on the membrane to measure the dynamic level of DHBV-DNA in the duck serum. According to the instruction of nick translation kit, dot blot hybridization of duck serum and was carried out using ^32 P labeled DHBV-DNA probe (purchased from Promega Co.). And the dots were shown on the membrane by radioautography. The OD values (the filter was 490 nm) of the dots on the membrane were measured by ELISA. DHBV-DNA density of the serum was calculated and the OD values of the hybridized dot were used as the values of DHBV-DNA level.
# a) The mean values (X±SD) of DHBV-DNA OD values of serum at different time of the ducks in each group were calculated, and the DNA levels of serum at different time after drug administration (T5, T10) and the third day after drug withdrawal (P3) for the ducks in each group and were compared with the OD values before administration (T0) of the same group. The values of t1 and P1 were calculated by paired-t test. The significance of the difference was analyzed, and the inhibitory effect of the drugs on the viral infection was estimated.
# b). The inhibition ratio (%) to DHBV-DNA of serum at different time after administration (T5, T10) and the third day after drug withdrawal (P3) of the ducks in each group were calculated and illuminated in the figure, and the dynamic state of the inhibition ratios of DHBV-DNA in duck serum in each group were compared.
# c) The inhibitions % of DHBV-DNA at different time of the administration group were compared with that at the same time of the virus control group. […] The significance of the difference was analyzed, and the drug action was estimated.
# [2] = Cytotoxicity to HepG2.2.15 cells, MTT method; type: cell-based; details: human, HepG2.2.15 cells (HBV-transgenic human hepatoma cell line), day 8, 50% death concentration
# Description: (§1) Hepatitis B virus (HBV) transgenic human hepatoma carcinoma cell, HepG2.2.15 cell line, can secrete hepatitis B virus particles (containing antigen and DNA) into the supernatant when being incubated.
# (§2) Under the influence of antiviral drugs, the contents of HBsAg, HBeAg and viral DNA secreted from cells into the supernatant were detected. Compared with the contents of control groups without drugs, the antiviral activity of the sample drugs can be observed. Meanwhile, the cytotoxic effect of the sample drugs can be detected. The value concentration of the sample drugs which caused 50% of the cells dead measured with MTT method was CC50. And the value concentration of the sample drugs which inhibited 50% of the secretion of HBsAg and HBeAg detected by specific ELISA kits and inhibited 50% of the viral DNA replication detected by fluorescent quantitation PCR method was IC50.
# (§3) HepG2.2.15 cells were inoculated into a 96-well plate, and the sample drugs were added next day. The medium and the sample drugs with the same concentration were renewed periodically, and the supernatants were collected on the eighth day to be detected. MTT was added to the cells in the 96-well plate, and MTT dissolving solution was added after 4 hours and reacted overnight. OD570 was measured on ELISA the next day. The cytotoxicity of the sample drugs to HepG2.2.15 cells, the effect of the sample drugs on the growth of the cells, and the concentration of the sample drugs (CC50) resulting in 50% of the cells dead were estimated according to the OD values.
# [3] = system: Hepatitis B virus (HBV) DNA; experiment: HBV-DNA replication in HepG2.2.15 supernatant, fluorescent quantification PCR; type: cell-based; details: for IC50: Hepatitis B virus, 192 h, HepG2.2.15 supernatant, day 8, PCR, NA means no obvious biological activity or unable to be calculated
# Description: as §1, §2, §3
# A suitable amount of supernatant was added to the same volume of virus extract solution, and was boiled after mixed homogenously, then centrifuged at 10000 rpm under room temperature for 5 minutes, and a suitable amount of supernatant was collected for PCR amplification. Meanwhile five HBV-DNA standard samples were set to establish a standard curve. According to the obtained viral DNA replication value, the inhibition ratios of HBV-DNA replication of each sample drug at different concentrations were calculated, and then the half inhibition rates of the sample drugs were calculated to obtain IC50. For those samples that can not be calculated for IC50 values, they can be represented by ICx and list the corresponding concentration values.
Compound,CC50 at 8 day [2] [µM],IC50 [3] [µM],other results
COc1ccc(-c2nc(C(=O)OC(C)C)c(CC(C)C)s2)cc1 [C37],> 33,0.03,"inhibitory effect to DHBV-DNA in duck serum, group analysis (versus virus control group) [1]: at each time point did not show inhibitory effect to DHBV-DNA; inhibitory effect to DHBV-DNA in duck serum, paired analysis (versus T0 of same group) [1]: at each time point did not show inhibitory effect to DHBV-DNA"
CC(C)Cc1sc(-c2nccs2)nc1CO [C254],> 33.3,> 33.3,–
CC(=O)c1nc(-c2nccs2)sc1CC(C)C [C266],> 33.3,0.06,–
CC(C)Cc1sc(-c2nccs2)nc1C(N)=O [C267],> 100,–,"DNA replication ICX: IC89 ([3]; concentration at 89% inhibition, IC50 not calculable): IC89 = 33 μM"
CC(C)Cc1sc(-c2nccs2)nc1C(C)O (stereo not drawn) [C268-2],> 33.3,0.6,–
CCOC(=O)c1nc(-c2ccccn2)oc1CC(C)C [C274],> 100,67.6,–
CCC(=O)c1nc(-c2nccs2)sc1CC(C)C [C280-4],> 33.3,0.09,–
CNC(=O)c1nc(-c2nccs2)sc1CC(C)C [C281],> 100,–,"DNA replication ICX: IC94 ([3]; concentration at 94% inhibition, IC50 not calculable): IC94 = 33 μM"
CCC(O)c1nc(-c2nccs2)sc1CC(C)C (stereo not drawn) [C282-2],> 33.3,0.8,–
CCOC(=O)c1nc(-c2cccnc2)sc1CC(C)C [C290-2],> 100,–,–
CCOC(=O)c1nc(-c2ccncc2)sc1CC(C)C [C290-3],> 100,–,–
CCOC(=O)c1nc(-c2ccccn2)sc1CC(C)C [C290],> 100,0.14,–
CC(C)Cc1sc(-c2nccs2)nc1C(=O)N(C)C [C295-3],> 100,–,"DNA replication ICX: IC12 ([3]; concentration at 12% inhibition, IC50 not calculable): IC12 = 1.23 μM"
CCOC(=O)c1nc(-c2ccc(C)cc2)sc1CC(C)C [C303-1],> 33.3,2.9,–
CCOC(=O)c1nc(-c2cccc(C)c2)sc1CC(C)C [C303-2],> 33.3,> 33.3,–
CCOC(=O)c1nc(-c2ccccc2C)sc1CC(C)C [C303-3],> 33.3,1.48,–
CCOC(=O)c1nc(-c2ccc(O)cc2)sc1CC(C)C [C305-4],> 33.3,–,–
CCOC(=O)c1nc(-c2cccc(O)n2)sc1CC(C)C [C306-2],> 100,0.14,–
CCOC(=O)c1nc(-c2ncccc2O)sc1CC(C)C [C306-3],5.67,0.14,–
CCOC(=O)c1nc(-c2ccc(F)cc2)sc1CC(C)C [C307-2],> 33.3,–,–
CCOC(=O)c1nc(-c2cccc(F)c2)sc1CC(C)C [C307-3],> 33.3,< 0.05,–
CCOC(=O)c1nc(-c2ccccc2F)sc1CC(C)C [C307-4],> 33.3,0.14,–
CC(C)Cc1sc(-c2nccs2)nc1C(=O)OC(C)C [C310-4],> 100,0.81,"inhibitory effect to DHBV-DNA in duck serum, group analysis (versus virus control group) [1]: T10 showed inhibitory effect to DHBV-DNA with statistical significance; inhibitory effect to DHBV-DNA in duck serum, paired analysis (versus T0 of same group) [1]: T10 showed inhibitory effect to DHBV-DNA with statistical significance"

Compound,CC50 at 8 day [2] [µM],IC50 [3] [µM],other results
CCOC(=O)c1nc(-c2ccc(OC)cc2)sc1CC(C)C [C319-3],> 33.3,0.09,–
CCOC(=O)c1nc(-c2cccc(OC)c2)sc1CC(C)C [C319-4],> 33.3,0.11,–
CCOC(=O)c1nc(-c2ccccc2OC)sc1CC(C)C [C319-5],> 33.3,0.04,–
CCOC(=O)C=Cc1nc(-c2nccs2)sc1CC(C)C [C322-2],> 33.3,0.06,–
CCOC(=O)c1nc(-c2ccc3ccccc3n2)[nH]c1CC(C)C [C323-2],> 100,–,–
CCOC(=O)c1nc(-c2cccc(Cl)c2)sc1CC(C)C [C323-3],> 33.3,–,–
CCOC(=O)c1nc(-c2ccc3ccccc3n2)oc1CC(C)C [C324-4],45.4,11.9,–
CCOC(=O)CCc1nc(-c2nccs2)sc1CC(C)C [C324-5],> 33.3,3,–
CC(C)Cc1sc(-c2nccs2)nc1C(=O)OC(C)(C)C [C324-6],> 33.3,3.7,–
CCOC(=O)c1nc(-c2ccc([N+](=O)[O-])cc2)sc1CC(C)C [C334-2],> 33.3,1.06,–
CCOC(=O)c1nc(-c2cccc([N+](=O)[O-])c2)sc1CC(C)C [C334-3],> 33.3,1.2,–
CCOC(=O)c1nc(-c2ccccc2[N+](=O)[O-])sc1CC(C)C [C334-4],> 33.3,1.24,–
CC(C)Cc1sc(-c2nccs2)nc1C(=O)Nc1ccccc1 [C343],50,–,"DNA replication ICX: IC19 ([3]; concentration at 19% inhibition, IC50 not calculable): IC19 = 1.23 μM"
CCOC(=O)c1nc(-c2ncc(-c3ccccc3)s2)sc1CC(C)C [C358],> 33.3,–,"DNA replication ICX: IC36 ([3]; concentration at 36% inhibition, IC50 not calculable): IC36 = 1.23 μM"
CCOC(=O)c1nc(-c2cccc([N+](=O)[O-])c2OC)sc1CC(C)C [C364-1],19.2,1.1,–
CCOC(=O)c1nc(-c2ccc([N+](=O)[O-])c(OC)c2)sc1CC(C)C [C364-2],> 33.3,–,–
CCOC(=O)c1nc(-c2ncc(Br)s2)sc1CC(C)C [C375],> 33.3,> 33.3,–
CCOC(=O)c1nc(-c2ccc(NC(=O)OC(C)(C)C)cc2)sc1CC(C)C [C404],> 33.3,–,–
CC(C)Cc1sc(-c2nccs2)nc1C(=O)NCc1ccc(F)cc1 [W28F],43,0.78,"DHBV-DNA rebound 3 days after drug withdrawal (P3) ([1]; then P3): rebounded, it did not reach the original level; inhibitory effect to DHBV-DNA in duck serum, group analysis (versus virus control group) [1]: T5 and T10 showed inhibitory effect to DHBV-DNA with statistical significance; inhibitory effect to DHBV-DNA in duck serum, paired analysis (versus T0 of same group) [1]: T5 and T10 showed inhibitory effect to DHBV-DNA with statistical significance"
Cc1cnc(-c2nc(C(=O)OC(C)C)c(CC(C)C)s2)s1 [W28M],> 20,< 0.08,"inhibitory effect to DHBV-DNA in duck serum, group analysis (versus virus control group) [1]: did not show any effect with statistical significance; inhibitory effect to DHBV-DNA in duck serum, paired analysis (versus T0 of same group) [1]: T10 and P3 showed inhibitory effect to DHBV-DNA with statistical significance"
COC(=O)c1nc(-c2nccs2)sc1CC(C)C [W28],> 333,2.4,–
CCCCc1sc(-c2nccs2)nc1C(=O)O [Wang268],257,–,"DNA replication ICX: IC53 ([3]; concentration at 53% inhibition, IC50 not calculable): IC53 = 125 μM"
O=C(O)c1nc(-c2nccs2)sc1Cc1ccccc1 [Wang302],192,63.1,–
